In assay [1] the target is T1, Ba/F3 cell EGFR L858R/T790M (Homo sapiens, UniProt P00533, L858R/T790M).
T1 construct: expressed in transfected cells; host or cells: Ba/F3
Put plainly: Ba/F3 cell proliferation suppression, EGFR L858R/T790M. Format: cell-based. Conditions: 72 hours after treatment, CellTiter-Glo. The protocol:
(§1) The following experiment was carried out to evaluate the suppression activity of the compounds according to the present invention against proliferation of Ba/F3 and lung cancer cells which express EGFR mutations.
(§2) Of the cancer cell lines expressing the EGFR gene, A549 was cultured after adding 10% FBS (HyClone) to DMEM (Invitrogen), and RPMI-1640 (Invitrogen) with 10% FBS was used for the other cancer cells. For the Ba/F3 cells, RPMI-1640 with 10% FBS and 5 ng/ml IL-3 (R&D Systems) was used. The transduced Ba/F3 cells were cultured by adding 1 ug/ml puromycin (Invitrogen) to the same medium.
(§3) 24 hours before treatment with the compounds, 3000 to 5000 cells were distributed into each well of a white clear bottom 96 well plate (Corning). The compounds were diluted in dimethylsulfoxide (dilution ratio 3:1; 12 concentrations total) and injected 0.5 ul each for a final concentration of 0.3 nM to 50 um. As for measurement of live cells, 72 hours after treatment with the compounds, a CellTiter-Glo luminescent cell-viability reagent (Promega) was used to store the cells at room temperature for 10 minutes, followed by measurement of luminescence using a reader (SynergyNeo, Biotek). Each test was repeated three times.
(§4) The result was calculated as a cell growth ratio (%) compared to a control. The program GraphPad Prism version 5.0 was used to draw the graphs and calculate the GI50 values.
In general terms: ATP-based viability assays read luminescence as a measure of living cells.

Assay [2] deals with Ba/F3 cell EGFR Del19/T790M. Briefly: Ba/F3 cell proliferation suppression, EGFR Del19/T790M. Conditions: 72 hours after treatment, CellTiter-Glo. Format: cell-based. On the procedure:
as §1, §2, §3, §4

The target in a further assay is T2, Ba/F3 cell EGFR L858R (Homo sapiens, UniProt P00533, L858R).
T2 construct: expressed in transfected cells; host or cells: Ba/F3
Briefly: Ba/F3 cell proliferation suppression, EGFR L858R. It is filed as cell-based. Conditions: 72 hours after treatment, CellTiter-Glo. On the procedure:
as §1, §2, §3, §4

The next assay has as its system Ba/F3 cell naive. Put plainly: Ba/F3 cell proliferation suppression, naive. Format: cell-based. Particulars: Mus musculus, BaF3; 72 hours after treatment, CellTiter-Glo. The protocol:
as §1, §2, §3, §4

Assay [3] deals with T3, Ba/F3 cell EGFR Exon20 ins NPH (Homo sapiens, UniProt P00533, INS773NPH).
T3 construct: expressed in transfected cells; host or cells: Ba/F3
Put plainly: Ba/F3 cell proliferation suppression, EGFR Exon20 ins NPH. Format: cell-based. Particulars: for GI50: 72 hours after treatment, CellTiter-Glo; for Ba/F3 (NPH) Activity: GI50 class, Ba/F3 cell line with NPH inserted at Exon20 of EGFR, 72 hours. The method in brief: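 Seed 3000–5000 cells/well; after 24 h add compound (12 conc., 0.3 nM–50 um final); incubate 72 h; add CellTiter-Glo, 10 min room temperature; read luminescence; GI50 from % growth vs control, triplicate.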

Assay [4] concerns the target T4, Ba/F3 cell EGFR Exon20 ins SVD (Homo sapiens, UniProt P00533, INS770SVD).
T4 construct: expressed in transfected cells; host or cells: Ba/F3
Put plainly: Ba/F3 cell proliferation suppression, EGFR Exon20 ins SVD. It is filed as cell-based. Particulars: 72 hours after treatment, CellTiter-Glo. The protocol:
as §1, §2, §3, §4

Assay [5] has as its target T5, Ba/F3 cell EGFR Exon20 ins FQEA (Homo sapiens, UniProt P00533, INS763FQEA).
T5 construct: expressed in transfected cells; host or cells: Ba/F3
Briefly: Ba/F3 cell proliferation suppression, EGFR Exon20 ins FQEA. Particulars: 72 hours after treatment, CellTiter-Glo. It is filed as cell-based. The protocol:
as §1, §2, §3, §4

The target of assay [6] is T6, Ba/F3 cell EGFR Exon20 ins ASV (Homo sapiens, UniProt P00533, INS769ASV).
T6 construct: expressed in transfected cells; host or cells: Ba/F3
Briefly: Ba/F3 cell proliferation suppression, EGFR Exon20 ins ASV. It is filed as cell-based. Particulars: 72 hours after treatment, CellTiter-Glo. On the procedure: as §1, §2, §3, §4

For assay [7], the target named is T7, Ba/F3 cell HER2 Exon20 ins YVMA (Homo sapiens, UniProt P04626, INS775YVMA).
T7 construct: expressed in transfected cells; host or cells: Ba/F3
Put plainly: Ba/F3 cell proliferation suppression, HER2 Exon20 ins YVMA. It is filed as cell-based. Particulars: 72 hours after treatment, CellTiter-Glo. The protocol:
as §1, §2, §3, §4

The test system of the next assay is PC9GR. Put plainly: Lung cancer cell proliferation suppression, PC9GR. Format: cell-based. Particulars: 72 hours after treatment, CellTiter-Glo. The protocol: as §1, §2, §3, §4
For another assay, the system named is H1975. Put plainly: Lung cancer cell proliferation suppression, H1975. Format: cell-based. Conditions: Homo sapiens, NCI-H1975; 72 hours after treatment, CellTiter-Glo. On the procedure: as §1, §2, §3, §4
The subject of the next assay is PC9. Put plainly: Lung cancer cell proliferation suppression, PC9. Format: cell-based. Particulars: Homo sapiens, PC-9; 72 hours after treatment, CellTiter-Glo. On the procedure:
as §1, §2, §3, §4

In assay [8] the test system is scanMAX kinase panel (EGFR mutant, ERBB2, ERBB4). Put plainly: DiscoverX (eurofin) KINOMEscan (scanMAX platform) kinase profiling. Format: binding. Particulars: for suppression activity against the EGFR mutant and ERBB2 and ERBB4: KINOMEscan scanMAX kinase profiling. The text has this: It was confirmed that the above example compounds had high selectivity against EGFR series genes. Accordingly, these can be useful in the treating of cancers wherein this kinase is expressed. In particular, as they have substantially outstanding lung cancer cell line proliferation suppression, they can be useful in the treatment of lung cancer, breast cancer, and brain cancer.

Where only a bound is given, the exact number is not on record here.

By GI50 is commonly meant the concentration giving 50% growth inhibition.

T7 sequence (P04626 with tags, fused parts or gaps INS775YVMA): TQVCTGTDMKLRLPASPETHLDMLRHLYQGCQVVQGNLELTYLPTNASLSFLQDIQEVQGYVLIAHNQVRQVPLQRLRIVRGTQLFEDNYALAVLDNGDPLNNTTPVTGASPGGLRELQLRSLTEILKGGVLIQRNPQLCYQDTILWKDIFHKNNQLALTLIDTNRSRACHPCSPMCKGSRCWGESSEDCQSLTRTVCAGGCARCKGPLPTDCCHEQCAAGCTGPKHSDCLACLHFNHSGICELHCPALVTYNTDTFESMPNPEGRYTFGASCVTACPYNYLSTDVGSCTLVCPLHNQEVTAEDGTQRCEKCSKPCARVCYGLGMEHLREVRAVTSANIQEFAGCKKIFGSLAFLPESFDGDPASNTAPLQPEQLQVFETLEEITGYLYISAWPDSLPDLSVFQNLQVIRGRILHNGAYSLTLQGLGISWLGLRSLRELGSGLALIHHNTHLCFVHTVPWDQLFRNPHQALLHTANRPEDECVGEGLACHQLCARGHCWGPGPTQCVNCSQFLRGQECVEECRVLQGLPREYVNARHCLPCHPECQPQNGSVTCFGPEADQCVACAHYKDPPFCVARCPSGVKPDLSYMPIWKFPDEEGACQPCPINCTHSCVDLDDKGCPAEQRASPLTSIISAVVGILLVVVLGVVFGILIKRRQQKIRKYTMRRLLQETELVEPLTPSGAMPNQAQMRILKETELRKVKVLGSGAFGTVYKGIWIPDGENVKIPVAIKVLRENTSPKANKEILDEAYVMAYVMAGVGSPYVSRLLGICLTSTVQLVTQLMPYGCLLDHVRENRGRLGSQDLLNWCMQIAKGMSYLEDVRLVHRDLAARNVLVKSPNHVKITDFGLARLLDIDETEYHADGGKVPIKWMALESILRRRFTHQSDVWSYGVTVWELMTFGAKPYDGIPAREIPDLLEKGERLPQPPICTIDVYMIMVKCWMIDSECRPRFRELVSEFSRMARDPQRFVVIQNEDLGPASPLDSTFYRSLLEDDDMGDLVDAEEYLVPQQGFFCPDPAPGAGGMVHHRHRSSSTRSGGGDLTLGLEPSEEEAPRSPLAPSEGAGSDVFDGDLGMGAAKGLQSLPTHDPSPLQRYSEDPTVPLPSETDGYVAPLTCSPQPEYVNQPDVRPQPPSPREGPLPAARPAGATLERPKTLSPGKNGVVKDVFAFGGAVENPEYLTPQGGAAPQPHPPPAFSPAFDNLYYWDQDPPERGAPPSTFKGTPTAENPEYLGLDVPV

Turning to `C=CC(=O)Nc1cc(Nc2cc(N3OCC[C@H]3c3ccccc3)ncn2)c(OC)cc1N1CCOCC1` [Example 2, N-(4-methoxy-2-morpholino-5-((6-((S)-3-phenylisoxazolidine-2-yl)pyrimidine-4-yl)amino)phenyl) acrylamide], the GI50 in [1] is 0.5 to 5 µM; in assay [2], 0.5 to 5 µM; at Ba/F3 cell EGFR L858R, 0.05 to 0.5 µM; in the assay on Ba/F3 cell naive, at least 5 µM.

In the case of `C=CC(=O)Nc1cc(Nc2cc(N3OCC[C@@H]3c3cc(F)cc(F)c3)ncn2)c(OC)cc1N1CCC(N2C[C@@H]3C[C@H]2CO3)CC1` [Example 239, N-(2-(4-((1S,4S)-2-oxa-5-azabicyclo[2.2.1]heptane-5-yl)piperidine-1-yl)-5-((6-((R)-3-(3,5-difluorophenyl)isoxazolidine-2-yl)pyrimidine-4-yl)amino)-4-methoxyphenyl) acrylamide], the GI50 (in assay [1]; in assay [2]; at Ba/F3 cell EGFR L858R; in assay [3]; in assay [4]; in assay [5]) was under 0.05 µM in each case. Further, the GI50 in assay [6] was under 0.05 µM; in [7] it was under 0.05 µM; in the assay on Ba/F3 cell naive, at least 5 µM; in the assay on PC9GR it was 5 nM; in the assay on H1975, 1 nM; in the assay with PC9 it was 1 nM. For the same compound, the “Ba/F3 (NPH) Activity” value in assay [3] is “A (GI50 < 50 nM)”. Moreover, the “% inhibition of scanMAX Kinase profiling” value in assay [8] (EGFR(E746-A750del)) came to 96%; in assay [8] (EGFR(G719C)), 100%; in assay [8] (EGFR(G719S)) it was 99%; in assay [8] (EGFR(L747-E749del, A750P)), 95%; in assay [8] (EGFR(L747-T751del.Sins)), 93%; in [8] (EGFR(L858R)), 100%. Further, the “% inhibition of scanMAX Kinase profiling” value in assay [8] (EGFR(L858R.T790M)) was found to be 98%; in assay [8] (EGFR(L861q)), 97%; in [8] (EGFR(S752-I759del)), 82%; in [8] (EGFR(T790M)) it was 100%; in assay [8] (ERBB2) it was 100%; in assay [8] (ERBB4) it was 100%. Besides, the “suppression activity against the EGFR mutant and ERBB2 and ERBB4” value in assay [8] is “high suppression activity”.

For the compound `C=CC(=O)Nc1cc(Nc2cc(N3OCC[C@@H]3c3cc(F)cc(F)c3)ncn2)c(OC)cc1N1CC[C@@H](N(C)C)C1` [Example 242, N-(5-((6-((R)-3-(3,5-difluorophenyl)isoxazolidine-2-yl)pyrimidine-4-yl)amino)-2-((R)-3-(dimethylamino)pyrolidine-1-yl)-4-methoxyphenyl) acrylamide], the GI50 in assay [1] was under 0.05 µM; in assay [2], 0.05 to 0.5 µM; on Ba/F3 cell EGFR L858R it was under 0.05 µM; in assay [3] it was under 0.05 µM; in [4], under 0.05 µM; in [5], under 0.05 µM. In addition, the GI50 was under 0.05 µM in [6]; under 0.05 µM in [7]; 0.5 to 5 µM in the assay with Ba/F3 cell naive; 23 nM with PC9GR; 4 nM in the assay with H1975; 1 nM in the assay on PC9. The “Ba/F3 (NPH) Activity” value in assay [3] is reported as “A (GI50 < 50 nM)”. The “suppression activity against the EGFR mutant and ERBB2 and ERBB4” value in assay [8] is “high suppression activity”.

As to `C=CC(=O)Nc1cc(Nc2cc(N3OCC[C@H]3c3ccccc3)ncn2)c(OC)cc1N(C)CCN(C)C` [Example 1, N-(2((2-(dimethylamino)ethyl) (methyl)amino)-4-methoxy-5-((6-((S)-3-phenylisoxazolidine-2-yl)pyrimidine-4-yl)amino)phenyl) acrylamide], the GI50 in assay [1] is 0.05 to 0.5 µM; in assay [2] it was 0.05 to 0.5 µM; on Ba/F3 cell EGFR L858R, under 0.05 µM; in the assay on Ba/F3 cell naive, at least 5 µM.

As for `C=CC(=O)Nc1cc(Nc2cc(N3OCC[C@@H]3c3ccccc3)ncn2)c(OC)cc1N1CCN(C2CC2)CC1` [Example 7, N-(2-(4-cyclopropylpiperazine-1-yl)-4-methoxy-5-((6-((R)-3-phenylisoxazolidine-2-yl)pyrimidine-4-yl)amino)phenyl) acrylamide], the concentration for 50% growth inhibition (GI50) in assay [1] is 0.05 to 0.5 µM; in assay [2] it was under 0.05 µM; in the assay with Ba/F3 cell naive it was at least 5 µM.

Take `C=CC(=O)Nc1cc(Nc2cc(N3OCC[C@@H]3c3ccccc3)ncn2)c(OC)cc1N1CCOCC1` [Example 5, N-(4-methoxy-2-morpholino-5-((6-((R)-3-phenylisoxazolidine-2-yl)pyrimidine-4-yl)amino)phenyl) acrylamide]: the GI50 is 0.05 to 0.5 µM in [1], 0.05 to 0.5 µM in assay [2], under 0.05 µM on Ba/F3 cell EGFR L858R and at least 5 µM with Ba/F3 cell naive.

With `C=CC(=O)Nc1cc(Nc2cc(N3OCC[C@@H]3c3cc(F)cc(F)c3)ncn2)c(OC)cc1N1CCC(N2CC[C@@H](N(C)C)C2)CC1` [Example 237, N-(5-((6-((R)-3-(3,5-difluorophenyl)isoxazolidine-2-yl)pyrimidine-4-yl)amino)-2-(4-((R)-3-(dimethylamino)pyrolidine-1-yl)piperidine-1-yl)-4-methoxyphenyl) acrylamide], the 50% growth inhibitory concentration (GI50) in assay [1] was under 0.05 µM; in assay [3], under 0.05 µM; in assay [6], under 0.05 µM; in the assay on Ba/F3 cell naive, at least 5 µM. Besides, in [3], the “Ba/F3 (NPH) Activity” value is “A (GI50 < 50 nM)”.

With `C=CC(=O)Nc1cc(Nc2cc(N3OCC[C@@H]3c3cc(F)cc(F)c3)ncn2)c(OC)cc1N1CCC(N2CCN(C)CC2)CC1` [Example 26, N-(5-((6-((R)-3-(3,5-difluorophenyl)isoxazolidine-2-yl)pyrimidine-4-yl)amino)-4-methoxy-2-(4-(4-methylpiperazine-1-yl)piperidine-1-yl)phenyl)acrylamide], the GI50 in assay [1] was under 0.05 µM; in assay [3] it was under 0.05 µM; in [4], under 0.05 µM; in assay [7] it was under 0.05 µM; in the assay with Ba/F3 cell naive, at least 5 µM. For the same compound, the “Ba/F3 (NPH) Activity” value in [3] is “A (GI50 < 50 nM)”.

For `C=CC(=O)Nc1cc(Nc2cc(N3OCC[C@@H]3c3cc(F)cc(F)c3)ncn2)c(OC)cc1N1CCN(CC)CC1` [Example 240, N-(5-((6-((R)-3-(3,5-difluorophenyl)isoxazolidine-2-yl)pyrimidine-4-yl)amino)-2-(4-ethylpiperazine-1-yl)-4-methoxyphenyl) acrylamide], the 50% growth inhibitory concentration (GI50) in assay [1] is under 0.05 µM; in assay [3] it was under 0.05 µM; in assay [6] it was under 0.05 µM; with Ba/F3 cell naive it was at least 5 µM. The “Ba/F3 (NPH) Activity” value in assay [3] is “A (GI50 < 50 nM)”.

Values taken from patent publication US12157730B2, “Heteroaryl derivative, method for producing same, and pharmaceutical composition comprising same as effective component” (VORONOI INC., priority 2019, dated 2024).
